US10022527B2, “Immersion device” (BSN medical GmbH, priority 2013, dated 2018)

Assays:
[1] = Stability test of the NO content of the UV-generated NO-containing buffer solution (chemiluminescence detection); type: physicochemical; conditions: approximately 150 μM NO in buffered tap water pH 7.0 with 1.45 mM NaNO2 and 10 mM Na ascorbate; over a time span of 20 minutes; not statistically significant
Protocol: (§1) The NO-generating unit contained tap water, buffer salts (8 g/l NaCl+0.2 g/l KCl+1.424 g/l Na2HPO4+0.2 g/l KH2PO4, pH=7.0), 1.45 mM NaNO2 and 10 mM Na ascorbate.
(§2) UV radiation of this solution containing nitrite yielded a solution that contained approximately 150 μM NO. The stability of the generated NO and the occurrence of oxidation products were analyzed on the basis of this solution. Moreover, the effect in terms of perfusion and erythema formation was tested within the scope of its use as a foot bath.
This solution first underwent a stability test, that is to say, it was ascertained how the content of NO changes over a time span of 20 minutes. Every two minutes an aliquot of 10 ml of the bathing solution was pipetted into a flask (volume capacity of 175 ml) through which helium gas was flowing (100 ml/min) and which had already been filled with 40 ml of a PBS solution (pH of 7.4). During the entire procedure, the helium-gas mixtures escaping from the flask were conveyed directly into an NO analysis unit (Chemiluminescence Detector—CLD 822 Sr made by Eco Physics of Duernten, Switzerland) which detected and recorded the NO amounts in ppm (parts per million) that were contained in the gas mixture (in this context, also see Opländer et al. 2010—Nitric Oxide—Bio. Ch. 23: 275-283). […]

[2] = Generation of oxidation products (NO2) in the NO-containing solution; type: physicochemical; conditions: same solution
Protocol: as §1, §2
This solution first underwent a stability test, that is to say, it was ascertained how the content of NO changes over a time span of 20 minutes. […] During the entire procedure, the helium-gas mixtures escaping from the flask were conveyed directly into an NO analysis unit (Chemiluminescence Detector—CLD 822 Sr made by Eco Physics of Duernten, Switzerland) which detected and recorded the NO amounts in ppm (parts per million) that were contained in the gas mixture (in this context, also see Opländer et al. 2010—Nitric Oxide—Bio. Ch. 23: 275-283).
Using the solution described above, parallel to the above-mentioned NO detection, the amount of nitrogen dioxide radicals, as the most important oxidation product of NO, was detected during the same measurement. […]

[3] = cited from earlier work
[4] = cited from earlier work; remark: listed apart in the source

Question: With `[N]=O` [NO, nitric oxide] as the molecule, how does the “drop of NO content” value [1] read?
Answer: about 10%

Question: What about the “concentration of NO2 (oxidation product of NO)” value ([2]; occurred only after 10 minutes) of the same molecule?
Answer: ~1.5 ppm

Question: And the “measured NO2 values compared with the initial values” ([2]; up to the maximum time value of 20 minutes)?
Answer: not significantly higher than the initial values

Question: And the “maximum solubility of NO in aqueous solutions” value [3]?
Answer: approximately 2 mM

Question: And the “diffusion coefficient of NO relative to that of oxygen or carbon monoxide” value ([4]; at 37° C.)?
Answer: approximately 1.4

Question: And the “diffusion path that can be achieved in the tissues” value ([4]; calculated on the basis of the diffusion coefficient)?
Answer: 500 μm
